The results in this text go back to patent EP0425828A2, “Facteur thymique sérique for prevention and remedy of disorders of decrease in the number of blood corpuscles” (MITSUI TOATSU CHEMICALS, Inc., priority 1989, dated 1991).

Square brackets hold non-standard residues; d marks the D form. Peptide text beside a SMILES is read from it. pGlu = O=C1CC[C@@H](C(=O)O)N1

In series [1] the test system is leucocytes in peripheral blood. Put plainly: Effect on mice to which MMC was intraperitoneally administered: leucocyte count. It counts as in vivo, female ICR/JCL mice. Conditions: MMC alone, 20 µg/0.1 ml i.p. once a day for 10 days. The method, then: Four groups each consisting of 6 female ICR/JCL mice of 5 weeks old were treated as follows: For the first group, 0.1 ml of physiological saline was intraperitoneally administered to the mice for consecutive 12 days. For the second group, FTS substance was subcutaneously administered once a day in an amount of 100 u.g for consecutive 12 days. For the third group, MMC was intraperitoneally administered once a day in an amount of 20 µg/0.1 ml for 10 days from the zero day to the 9th day of the experiment. For the fourth group, FTS substance was subcutaneously administered to the mice once a day in an amount of 100 µg for consecutive 12 days from 2 days before the administration of MMC, and for 10 days from the […] after the administration of FTS substance MMC was intraperitoneally administered once a day in an amount of 20 u.g/0.1 ml. After the administration of the anti-cancer agent, blood was collected on alternate days from oculus vein and the numbr of leucocytes in the blood was counted.

Another series has as its system leucocytes (WBC). In words: Effect on mice to which cyclophosphamide (CPA) was intraperitoneally administered: blood inspection, WBC. Type of series: in vivo, male C3H/HeN mice. Conditions: for WBC, mean value ± S.D.: 400 mg/kg of CPA alone i.p. once on day zero. As to the method: (§1) Several groups each consisting of 10 male C3H/HeN mice of 8 weeks old were prepared. For the first group, 0.2 ml of physiological saline was subcutaneously administered for consecutive 12 days from 2 days before the examination to the 9th day of the examination. For the second group, FTS substance was subcutaneously administered once a day in an amount of 100 iig/0.2 ml for consecutive 12 days. For the third group, CPA was intraperitoneally administered in an amount of 400 mg/kg once on the zero day of the examination. For the fourth group, an administration schedule combining the second group with the third group was applied to the mice. For the fifth group, CPA was intraperitoneally administered in an amount 200 mg/kg once on the zero day of the examination. For the sixth group, an administration schedule combining the second group with the fifth group was applied to the mice. For the seventh group, CPA was intraperitoneally administered in an amount of 100 mg/kg once on the zero day of the examination. For the eighth group, an administration schedule combining the second group with the seventh group to the mice. During the examination, blood was collected by cutting axillary artery on the days of examination (0, 3rd, 5th, 7th, 10th and 14th days) and subjected to a blood inspection to measure the number of leucocytes (WBC), the number of erythrocytes (RBC), the number of reticulocytes (RET), the number of platelets (PLT), the number of hemoglobin (HGB), hematocrit value (HCT), a mean corpuscular volume, a mean corpuscular hemoglobin and a mean corpuscular hemoglobin concentration.

The next series relates to reticulocytes (RET). In words: Effect on mice to which CPA was intraperitoneally administered: blood inspection, RET. It counts as in vivo, male C3H/HeN mice. As to the method:
as §1, with “During the examination, blood was collected by cutting axillary artery on the days of examination (0, 3rd, 5th, 7th, 10th and 14th days) and subjected to a blood inspection to measure the number of leucocytes (WBC), the number of erythrocytes (RBC), the number of reticulocytes (RET), the number of platelets (PLT), the number of hemoglobin (HGB), hematocrit value (HCT), a mean corpuscular volume, a mean corpuscular hemoglobin and a mean corpuscular hemoglobin concentration.” left out

A further series has as its system platelets (PLT). Put plainly: Effect on mice to which CPA was intraperitoneally administered: blood inspection, PLT. Type of series: in vivo, male C3H/HeN mice. The method, then: as §1
A short description of series [2]: Effect on mice to which CPA was intraperitoneally administered: body weight. Conditions: CPA alone. It counts as in vivo, male C3H/HeN mice. The method, then: as §1, with “During the examination, blood was collected by cutting axillary artery on the days of examination (0, 3rd, 5th, 7th, 10th and 14th days) and subjected to a blood inspection to measure the number of leucocytes (WBC), the number of erythrocytes (RBC), the number of reticulocytes (RET), the number of platelets (PLT), the number of hemoglobin (HGB), hematocrit value (HCT), a mean corpuscular volume, a mean corpuscular hemoglobin and a mean corpuscular hemoglobin concentration.” left out

In another series the test system is ddy strain male mice. In words: Toxicity test in mice, repeated subcutaneous administration. As to conditions: for toxicity: five ddy strain male mice of 5 weeks old. Type of series: in vivo. The source says: (§2) Thus, the medicament of the present invention is a safe medicament of extremely low toxicity and can be administered for a long period of time.
In another series the test system is Wistar rats. In words: Toxicity test in rats, repeated subcutaneous administration. As to conditions: 30 mg/kg s.c. for consecutive 21 days. It counts as in vivo.
Text: as §2

Setting [3] is: 7th day, 400mg/kg of CPA alone i.p. once on day zero.

Take `CO[C@@]12[C@H](COC(N)=O)C3=C(C(=O)C(C)=C(N)C3=O)N1C[C@@H]1N[C@@H]12` [MMC, mitomycine C]: in series [1], the “number of leucocytes, lowest level as % of the maximum normal range” value is “about 40%”.
`O=P1(N(CCCl)CCCl)NCCCO1` (stereo not drawn) [CPA, cyclophosphamide]: the “WBC, mean value ± S.D.” value in the series on leucocytes (WBC) (3rd day) is 11.6±2.1 x 10^2/mm^3; in the series with leucocytes (WBC) (5th day), 4.2±1.0 x 10^2/mm^3. Moreover, the WBC change result in the series with leucocytes (WBC) (CPA alone 400 mg/kg, 200 mg/kg or 100 mg/kg, 3rd, 5th and 7th day, 5th day the minimum) is “considerably decreased”. Further, the RET with reticulocytes (RET) (setting [3]) was 27.2±5.0 0/00. Also, the RET change result in the series with reticulocytes (RET) (CPA administered, 5th day the minimum) was “RET was decreased”. The PLT change entry in the series on platelets (PLT) (400 mg/kg and 200 mg/kg of CPA, 7th day the minimum, recovered to the normal range on the 10th day) is reported as “PLT was decreased”. Further, the PLT with platelets (PLT) (5th day, 400 mg/kg of CPA alone i.p. once on day zero) is given as 357±82 x 10^3/mm^3; in the series on platelets (PLT) (setting [3]), 214±73 x 10^3/mm^3. Further, the body weight change result in series [2] was “decrease in body weight”.
As for `C[C@H](NC(=O)[C@@H]1CCC(=O)N1)C(=O)N[C@@H](CCCCN)C(=O)N[C@@H](CO)C(=O)N[C@@H](CCC(N)=O)C(=O)NCC(=O)NCC(=O)N[C@@H](CO)C(=O)N[C@@H](CC(N)=O)C(=O)O` [effective ingredient, pGlu-Ala-Lys-Ser-Gln-Gly-Gly-Ser-Asn] ([pGlu]AKSQGGSN-OH), the toxicity entry with ddy strain male mice (50 mg/kg s.c. for consecutive 14 days), in the series with ddy strain male mice (100mg/kg s.c. for consecutive 14 days) and in the series with Wistar rats (ten Wistar rats of 5 weeks old) was “No toxicity was observed” in each case. For the same compound, the “abnormal symptoms by external check” value in the series with ddy strain male mice (100 mg/kg s.c. every day for consecutive 14 days, mice) is “no abnormal symptom was found”. Further, the “abnormal symptoms in external behavior observation, biochemical diagnosis of sera and pathological anatomy” value with Wistar rats (rats) is on record as “no abnormal symptom was found”.
